Measurements: patent US20030152536A1, “Cosmetic preparations containing waltheria indica extracts” (priority 2000, published 2003)

Test system: melanin index of forearm skin
Experiment: In vivo lightening of color on the forearm of 41 volunteers with Asiatic skin color (melanin index D56/D0)
Design: species or system human
Details: D0 melanin index before, D56 after treatment
Description: The effectiveness of the preparations according to the invention by comparison with known preparations was tested in vitro by inhibition of the synthesis of melanin in B 16 melanocytes. The concentration of the active principles (in % by weight) in the cell culture medium and the inhibition in %-rel. in relation to the blank value are shown. An in vivo test was also carried out by measuring the lightening of color on the extensor muscle side of the forearm of 41 volunteers with Asiatic skin color. The depigmenting activity D56/D0 is shown, D0 standing for the melanin index before the treatment and D56 for the index after the treatment.

SMILES: OC[C@H]1O[C@@H](Oc2ccc(O)cc2)[C@H](O)[C@@H](O)[C@@H]1O [Arbutin]
- D56/D0 (concentration 0.1): 54
- D56/D0 (concentration 0.3): 30
